In patent publication US7435555B2, “Asparagine hydroxylation of the CAD domain of a HIF protein” (Adelaide Research and Innovation Pty Ltd., priority 2001, dated 2008):

Tests used:
Format in all cases: cell-based, human
[1] = system: Gal4DBD/HIF-1α 727-826 CAD chimera; test: Gal4 response element luciferase reporter gene assay, GalDBD/HIF-1α CAD chimera; settings: cells treated 16 h at normoxia
[2] = system: Gal4DBD/HIF-2α 774-874 CAD chimera; test: Gal4 response element luciferase reporter gene assay, GalDBD/HIF-2α CAD chimera; settings: cells treated 16 h at normoxia
Text: FIG. 3. Expression vectors for either the Gal4 DNA Binding Domain or the indicated GalDBD HIF-1α and HIF-2α CAD chimeric proteins were contransfected with a Gal4 response element containing luciferase reporter gene and an internal control renilla luciferase reporter gene. […] Data are the average of three transfections±standard deviation.
FIG. 6. […] A) Sequence comparisons show conservation of the critical Asn between HIF-1α and HIF-2α across species. […] HEK293T cells were transfected according to the protocol of FIG. 3A and data represent the average of triplicate transfections +/standard deviation. (C). The wild type and mutant Ga14DBD/HIF chimeras used in A) are expressed at the same levels during transient transfection. Whole cell extracts of control or transfected cells were separated by SDS-PAGE and proteins detected by immunoblotting with antibodies directed against the C-terminus of HIF-1α (C) or HIF2α.
Human embryonic kidney 293T and rat pheochromocytoma PC12 cells were maintained in Dulbecco's Modified Eagles Medium (DMEM) supplemented with 10% foetal calf serum. For transient transfections, cells were plated onto 24 well plates at a density of 2.0×10^4 cells/well. […] After 16 hrs treatment, cells were harvested, Iysed and extracts analysed using the Dual Luciferase Reporter Assay Kit as outlined by the manufacturer (Promega). […]

HIF-2α CAD = test: Immunoblot of HIF-2α CAD protein expression in stable transfected HEK 293T cells; settings: treatment 3 h, anti-myc immunoblot
Text: FIG. 4. A) Schematic showing domains of HIF-2α and the construct containing the CAD region fused to a 6xHis tag/myc epitope which was used to generate a stable expressing cell line. B) Protein expression of the HIF-2α CAD is not increased by hypoxia or DP treatment. […] The 293T control lane contains extract from cells stably transfected with blank expression vector. C) Sypro-Ruby (Bio-Rad) stained SDSPAGE gel showing an example of HIF-2α CAD purified from stable transfected cells. Extracts from non transfected cells subjected to the same purification procedure lack the HIF-2α CAD band.The higher molecular weight contaminant that is co-purified by the procedure was identified as 60S ribosomal protein L27A by mass spectrometry.
Isolated cell pellets were lysed in whole cell extract (WCE) buffer (10 mM Tris pH7.9, 0.42M NaCl2, 0.5% NP40, 25% Glycerol, 0.2 mM EDTA, 1.5 mM MgCl2, 1 mM DTT, protease inhibitors) for 10 min at 4° C. Lysed extracts were then clarified by centrifugation at 12,000 g for 15 min. The protein concentration of clarified lysates was determined using the Bradford assay (Biorad). Protein samples were then resolved on 12.5% Tris-Tricine gels. For the HIF-2α774-874 stable line, 10 μg of WCE was analysed by immunoblotting with the anti-myc 9E10 monoclonal antibody. […]

[3] = system: HIF-2α CAD Asn851 hydroxylation; test: Mass spectrometry of HIF-2α CAD purified from stable 293T cells (hydroxylation of Asn851); settings: DP 100 μM, 3 h; MALDI-TOF
Protocol: FIG. 5. A) Mass spectrometry of the HIF-2α CAD purified from cells incubated in normoxia or subjected to hypoxia (<1% O2, 3 h) or DP (100 μM, 3 h) treatments. A & B) Magnified views of the MALDI-TOF spectra corresponding to hydroxylation (+16 Da) of the peptide […] [SED ID NO. 1], which appears in the normoxic but not hypoxic or DP treated samples. […] Fragments were also observed for the modified sequence at m/z values of +16 Da higher than Asn851-containing fragments of the unmodified sequence. The boundary of the coincident and +16 Da fragment ions is indicated by the symbol N+ on the fragment ion spectrum of the modified sequence.
Samples for MS analysis were isolated from a 293T stable cell line that expressed HIF-2α774-874. After normoxic culture or treatment with hypoxia or DP as specified, cells were washed once with PBS, then lysed with binding buffer (100 mM Na-Phosphate pH8.0, 8M Urea, 0.1% NP40, 0.15M NaCl2, 5 mM imidazole, 1 mM βMe, 0.05 mM Na3VO4, 0.1 mM NaF, 0.5 mM β-Glycerophosphate, protease inhibitors). […]
Tryptic digests were analyzed using a Bruker Reflex MALDI-TOF-MS operated in the positive ion reflector mode. MALDI-TOF-MS data were acquired and analyzed using the Bruker XMass suite of software (Lopaticki et al., 1998; Pitt et al., 2000; Gorman et al., 1997). […]

Row | SMILES | activity of the Gal4DBD/HIF-1α CAD chimera on treatment of cells [1] | activity of the Gal4DBD/HIF-2α CAD chimera on treatment of cells [2] | protein expression of the HIF-2α CAD (HIF-2α CAD) | +16 Da (hydroxylated) form of peptide 846-YDCEVNVPVPGSSTLLQGR-864 [3]
1 | COC(=O)CNC(=O)C(=O)OC [DMOG, dimethyl-oxalylglycine] | activation of the Gal4DBD/HIF-1α and Gal4DBD/HIF-2α CAD chimeras to a similar extent as that seen during treatment with hypoxia | activation of the Gal4DBD/HIF-1α and Gal4DBD/HIF-2α CAD chimeras to a similar extent as that seen during treatment with hypoxia | – | –
2 | c1ccc(-c2ccccn2)nc1 [DP, 2,2′-dipyridyl] | – | induces activity of the CADs | not increased | complete lack of the +16 mass increase
